Measured values taken from US7960131B2, “Functional genomic pore assay for mixed cell populations” (Wisconsin Alumni Research Foundation, priority 2003, dated 2011).
Changes are numbered by the printed parent chain. pEC50: −log10 of the molar value.

Experiments:
Format in all cases: cell-based
P2X7-Q460R = biological target: T1, P2X7-Q460R (Homo sapiens, UniProt Q99572, Q460R); test: YO-PRO-1 uptake fluorimetric plate assay in transfected HEK 293 cells, P2X7-Q460R
T1 construct: expressed in transfected cells
T1 sequence (Q99572 1-595 Q460R): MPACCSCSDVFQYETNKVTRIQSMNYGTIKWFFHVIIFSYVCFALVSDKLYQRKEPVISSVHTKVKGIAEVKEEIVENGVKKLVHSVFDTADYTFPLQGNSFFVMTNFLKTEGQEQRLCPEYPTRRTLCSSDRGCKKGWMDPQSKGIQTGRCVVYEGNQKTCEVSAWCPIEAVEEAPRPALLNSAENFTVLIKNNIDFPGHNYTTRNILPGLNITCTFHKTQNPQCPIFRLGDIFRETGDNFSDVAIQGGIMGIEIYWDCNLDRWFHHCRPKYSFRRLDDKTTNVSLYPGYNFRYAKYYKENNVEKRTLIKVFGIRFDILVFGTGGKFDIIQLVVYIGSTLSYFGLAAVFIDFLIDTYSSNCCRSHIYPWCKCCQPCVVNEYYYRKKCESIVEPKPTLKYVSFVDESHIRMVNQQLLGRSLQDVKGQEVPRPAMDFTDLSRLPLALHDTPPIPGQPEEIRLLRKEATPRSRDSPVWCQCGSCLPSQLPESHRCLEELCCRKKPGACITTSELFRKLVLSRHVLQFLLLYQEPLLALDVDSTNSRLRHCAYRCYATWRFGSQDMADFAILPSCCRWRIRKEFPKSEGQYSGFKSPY
Text: (§1) Recombinant Expression and Functional Characterization of Variant P2RX7 Alleles. A pcDNA3 expression vector containing a cloned human P2RX7 cDNA associated with normal pore activity was subjected to point mutagenesis using the Quick Change Kit (Stratagene Inc., city, state) to create the variants P2X7-G150R, P2X7-Q460R, and P2X7-E496A. HEK 293 cells were transfected by the Superfect liposomal method and stable populations were selected by G418 resistance. Expression of P2X7 mRNA and protein in unstimulated transfected HEK cell cultures was verified by RT-PCR and immunoblotting as previously described.
(§2) YO-PRO-1 fluorescence was measured by a Synergy-HT fluorescent plate reader (Biotek, city, state) using X±Y nm excitation and A±B emission filters.

P2X7 wild type = biological target: T2, P2X7 wild type (Homo sapiens, UniProt Q99572); test: YO-PRO-1 uptake fluorimetric plate assay in transfected HEK 293 cells, P2X7 wild type; details: HEK cells expressing P2X7 wild type, HEPES-buffered saline
T2 construct: expressed in transfected cells
T2 sequence (Q99572 1-595): T1 sequence (Q99572 1-595 Q460R) with R460Q
Text: as §1, §2

P2X7-E496A = biological target: T3, P2X7-E496A (Homo sapiens, UniProt Q99572, E496A); test: YO-PRO-1 uptake fluorimetric plate assay in transfected HEK 293 cells, P2X7-E496A; details: E496A variant
T3 construct: expressed in transfected cells
T3 sequence (Q99572 1-595 E496A): T1 sequence (Q99572 1-595 Q460R) with R460Q, E496A
Text: as §1, §2

P2X7-G150R = biological target: T4, P2X7-G150R (Homo sapiens, UniProt Q99572, G150R); test: YO-PRO-1 uptake fluorimetric plate assay in transfected HEK 293 cells, P2X7-G150R; details: G150R (G474A) mutant, also in more permissive buffer lacking NaCl
T4 construct: expressed in transfected cells
T4 sequence (Q99572 1-595 G150R): T1 sequence (Q99572 1-595 Q460R) with G150R, R460Q
Text: as §1, §2

2′-3′-O-(4-benzoylbenzoyl)-adenosine 5′-triphosphate [Bz-ATP]
pEC50 (P2X7-Q460R): ~4.52
increase in YO-PRO-1 fluorescence over baseline (P2X7-Q460R): 8 fold
pEC50 (P2X7 wild type): 4.52
increase of YO-PRO-1 fluorescence by Bz-ATP stimulation (P2X7 wild type): roughly four
increase in YO-PRO-1 fluorescence (P2X7-E496A; potassium glutamate buffer): approximately half-maximal increase
agonist-inducible pore activity (P2X7-E496A; saline-containing buffers): lacking agonist-inducible pore activity
agonist stimulated increase in YO-PRO-1 fluorescence (P2X7-G150R): loss of pore function
agonist stimulated increase in YO-PRO-1 fluorescence (P2X7-G150R; listed as BzATP): no agonist stimulated increase in fluorescence
